Test results as given in patent US20230212156A1 (FERMION OY, priority 2020, published 2023).

Experiments:
[1] = 10 g sample, 3 min sieving; for Particle size distribution (Alpine AJS) <425 μm: mass fraction passing 425 μm sieve; for Particle size distribution (Alpine AJS) >75 μm: mass fraction retained on 75 μm sieve; for Particle size distribution (Alpine AJS) >180 μm: mass fraction retained on 180 μm sieve
Text: In general, the method for carrying out an air jet sieving procedure is as follows.
Together with sample material the sieve is placed on the unit and covered with a lid. A powerful industrial vacuum cleaner generates a strong jet of air which disperses the particles on the sieve through the slotted nozzle rotating below the sieve mesh. Thus the particles are dispersed with each rotation and are distributed over the complete sieve surface. The jet of air causes a continuous new orientation of the particles on the sieve surface. Particles with sizes smaller than the sieve apertures are sucked in by the vacuum cleaner. When using sieves of certain height (e.g. 25 mm height), the inflowing air causes the particles to impact on the lid, thereby helping to destroy agglomerates. The material remaining on the sieve can then be weighed, allowing the amount of the sample having a particle size greater than the aperture of the mesh to be calculated.
Preferably, the sample amount is representative of the sample, and has a mass of at least 10 g. Thus, in one embodiment, the sample amount is 10 g. In this or any other embodiment, sieving time is suitably 3 minutes.
The sieves for use in the air jet sieving method are woven metal sieves. The technical requirements of the test sieves are specified in ISO standard ISO 3310-1:2016 Test sieves—Technical requirements and testing—Part 1: Test sieves of metal wire cloth. The sieves are also according to standard ASTM E11.
The sieving is done according to the process described in Ph.Eur. 2.9.38 Particle-size distribution estimation by analytical sieving. Air jet sieving method is used to determine the mass distribution of particles.
Sieving was done using woven metal sieves according to ISO standard ISO 3310-1:2016 (Test sieves—Technical requirements and testing—Part 1: Test sieves of metal wire cloth). The sieving was done using a single sieve at a time using the appropriate sieve size (75 gm, 180 gm, 425 gm). The sieving was done according to the process described in Ph.Eur. 2.9.38 (Particle-size distribution estimation by analytical sieving).
The sieve was tared. 10 grams of the particle mixture was weighed on the sieve. The sieve was placed on air jet sieve unit and covered with a lid. The vacuum cleaner was switched on, thereby creating a vacuum inside the sieving chamber. The sieving under vacuum was continued for 3 minutes. The finest particles were pulled downwards trough the sieve and the coarse particles remained on the sieve. At the end of the sieving process, the sieve was weighed and the mass of particles remained on the sieve was determined. The sieving process was done as described above using one sieve at a time until the particle size distribution was determined.

[2] = Particle size distribution by laser light diffraction (Beckman Coulter LS 230); details: for Particle size / particle size distribution by laser light diffraction, in words: based on FIGS. 1-4; for Dv10 / Dv50 / Dv90: volume weighted, Fraunhofer model, suspended in glycerol and water (1:1), 100 mg sample
[3] = alcohols, esters, ethers and hydrocarbons; cited from earlier work

Row | SMILES | Particle size distribution (Alpine AJS) <425 μm [1] [%] | Particle size distribution (Alpine AJS) >75 μm [1] [%] | Particle size distribution (Alpine AJS) >180 μm [1] [%] | Particle size / particle size distribution by laser light diffraction, in words [2] | Dv10 [2] [μm] | Dv50 [2] [μm] | Dv90 [2] [μm] | Solubility in most organic solvents [3]
1 | O=C1CN(/N=C/c2ccc([N+](=O)[O-])o2)C(=O)N1 [Comparison Example 9, nitrofurantoin anhydrate, reference compound] | 27 | 99 | 89 | – | – | – | – | –
2 | O=C1CN(/N=C/c2ccc([N+](=O)[O-])o2)C(=O)N1 [Example 2c, nitrofurantoin anhydrate] | 95 | 98 | 70 | narrow particle size distribution | 118 | 252 | 466 | –
3 | O=C1CN(/N=C/c2ccc([N+](=O)[O-])o2)C(=O)N1 [Example 2b, nitrofurantoin anhydrate] | 98 | 98 | 67 | narrow particle size distribution | 163 | 348 | 667 | –
4 | O=C1CN(/N=C/c2ccc([N+](=O)[O-])o2)C(=O)N1 [Comparison example 8, nitrofurantoin anhydrate, reference compound] | – | – | – | smaller than in example 2 | – | – | – | –
5 | O=C1CN(/N=C/c2ccc([N+](=O)[O-])o2)C(=O)N1 [Example 5a, nitrofurantoin anhydrate] | 97 | 96 | 51 | – | – | – | – | –
6 | O=C1CN(/N=C/c2ccc([N+](=O)[O-])o2)C(=O)N1 [Nitrofurantoin anhydrate, 1-[[(5-nitro-2-furanyl)methylene]amino]-2,4-imidazolidinedione] | – | – | – | – | – | – | – | sparingly soluble
7 | O=C1CN(/N=C/c2ccc([N+](=O)[O-])o2)C(=O)N1 [Example 4, nitrofurantoin anhydrate] | 98 | 99 | 80 | – | – | – | – | –
8 | O=C1CN(/N=C/c2ccc([N+](=O)[O-])o2)C(=O)N1 [Example 3, nitrofurantoin anhydrate] | 98 | 97 | 68 | – | – | – | – | –
9 | O=C1CN(/N=C/c2ccc([N+](=O)[O-])o2)C(=O)N1 [Example 2a, nitrofurantoin anhydrate] | 95 | 98 | 72 | narrow particle size distribution | 126 | 264 | 448 | –
10 | O=C1CN(/N=C/c2ccc([N+](=O)[O-])o2)C(=O)N1 [Example 1, nitrofurantoin anhydrate] | 96 | 99 | 76 | – | – | – | – | –

Second part, led by results:

Row | Particle size distribution (Alpine AJS) <425 μm [1] [%] | Particle size distribution (Alpine AJS) >75 μm [1] [%] | Particle size distribution (Alpine AJS) >180 μm [1] [%] | Particle size / particle size distribution by laser light diffraction, in words [2] | Dv10 [2] [μm] | Dv50 [2] [μm] | Dv90 [2] [μm] | SMILES | Solubility in most organic solvents [3]
11 | 99 | 94 | 36 | smaller than in example 2 | – | – | – | O=C1CN(/N=C/c2ccc([N+](=O)[O-])o2)C(=O)N1 [Example 7, nitrofurantoin anhydrate] | –
12 | 99 | 93 | 51 | – | – | – | – | O=C1CN(/N=C/c2ccc([N+](=O)[O-])o2)C(=O)N1 [Example 5c, nitrofurantoin anhydrate] | –
13 | 98 | 87 | 10 | smaller than in example 2 | – | – | – | O=C1CN(/N=C/c2ccc([N+](=O)[O-])o2)C(=O)N1 [Example 6, nitrofurantoin anhydrate] | –
14 | 98 | 95 | 52 | – | – | – | – | O=C1CN(/N=C/c2ccc([N+](=O)[O-])o2)C(=O)N1 [Example 5b, nitrofurantoin anhydrate] | –
